Experimental data published in patent US20090136553A1, “TRIGGERABLY DISSOLVABLE HOLLOW FIBERS FOR CONTROLLED DELIVERY” (priority 2007, published 2009).

Tests used:
[1] = system: endothelial cell migration and vessel formation in Matrigel plug; assay: In vivo murine Matrigel plug assay; parameters: species or system C57BL/6 mice; conditions: 10 μL daily of 100 μg/mL VEGF or 1800 μM S1P via fiber, 7 days post-implantation
Method: In vivo Assay. Growth factor reduced Matrigel™ (500 μL) was injected into the subcutaneous space on the dorsal side of C57BL/6 mice on both the left and right sides. A 12 G needle was used to thread cellulose hollow fibers through the skin and Matrigel™ plugs. Hollow fibers were fixed in place using tissue glue and an Elizabethan collar was used to prevent mice from extracting the hollow fiber. On the day of implantation and every day for the next 6 days, hollow fibers on the left side were injected with sterile saline and hollow fibers on the right side were injected with 10 μL of 100 μg/mL VEGF or 1800 μM S1P (see Table 8 for schedule).
Seven days post-implantation, implants were extracted, fixed and analyzed for endothelial cell migration and vessel formation. […] CD31 staining of Matrigel™ plug explants confirms that cells that have migrated into the Matrigel™ plugs are in fact endothelial cells (FIGS. 21E-H). Metamorph® was used to measure the % area of each image that consisted of endothelial cell staining in order to quantify endothelial cell migration.

[2] = system: surgically created aneurysm; conditions: bFGF collagen gel in fiber lumen, three weeks; cited from earlier work

| Substance | blood filled vessels (H&E) [1] | fibrous tissue formation in aneurysm [2] |
| --- | --- | --- |
| vascular endothelial growth factor [VEGF] | blood filled vessels | – |
| basic fibroblast growth factor [bFGF] | – | remained functional as it was able to guide the aneurysm to create fibrous tissue |
